Measured values as given in US20220396580A1, “TRICYCLIC DILACTONE COMPOUND, AND PRODUCTION METHOD AND USE THEREOF” (SEOUL NATIONAL UNIVERSITY R&DB FOUNDATION, priority 2020, published 2022).

Key:
[1] = biological target: T1, human A131-42 monomer (Homo sapiens, UniProt P05067); assay: Inhibition of amyloid-beta aggregation (thioflavine-T fluorescence); format: biochemical; settings: 25 μM amyloid-beta, 1 mM rhizolutin, 37° C., 120 hours
T1 construct: UniProt KB-P05067, a.a; 672 to 713
Description: An amyloid-beta solution was prepared by dissolving human A131-42 monomer (UniProt KB-P05067, a.a. 672 to 713) in DMSO to have a concentration of 10 mM. Then, the amyloid-beta solution was diluted with distilled water to prepare a solution having a concentration of 100 μM. Meanwhile, thioflavine-T (Sigma-Aldrich) was dissolved in 50 mM glycin buffer (pH 8.5) to have a concentration of 5 mM. Then, the resulting solution was diluted with 50 mM glycin buffer (pH 8.5) to have a concentration of 5 μM, and stored light-blocked in a dark room. To verify the inhibitory activity of rhizolutin on the amyloid-beta aggregation, the amyloid-beta solution was added to 1.5 mL microtubes to a concentration of 25 μM, and rhizolutin was added thereto at a concentration of 1 mM, followed by incubation at 37° C. for 120 hours. […] After a reaction was allowed for 5 minutes at room temperature in the darkroom, fluorescence was measured at an excitation wavelength of 450 nm and an emission wavelength of 485 nm by using a multi-mode microplate reader. Based on the fluorescence intensity of the group (control group) in which only amyloid-beta was treated and aggregated for 120 hours, the fluorescence intensity (%) of each group was calculated, and results are shown in FIG. 3A (one-way ANOVA test followed by Bonferroni's post-hoc comparison test, mean±SEM, ***: p<0.001).

[2] = biological target: T1, human A131-42 monomer; assay: Disaggregation of amyloid-beta aggregates (thioflavine-T fluorescence); format: biochemical
Description: An amyloid-beta solution was prepared by dissolving human A131-42 monomer (UniProt KB-P05067, a.a. 672 to 713) in DMSO to have a concentration of 10 mM. Then, the amyloid-beta solution was diluted with distilled water to prepare a solution having a concentration of 100 μM. Meanwhile, thioflavine-T (Sigma-Aldrich) was dissolved in 50 mM glycin buffer (pH 8.5) to have a concentration of 5 mM. Then, the resulting solution was diluted with 50 mM glycin buffer (pH 8.5) to have a concentration of 5 μM, and stored light-blocked in a dark room. In addition, to verify the activity of rhizolutin on disaggregation of the amyloid-beta aggregation, the amyloid-beta solution was added to a 1.5 mL microtube to a concentration of 25 μM and incubated at 37° C. for 72 hours. Then, 1 mM of rhizolutin was added to each microtube, followed by incubation at 37° C. for 72 hours. […] Then, fluorescence intensity was measured at an excitation wavelength of 450 nm and an emission wavelength of 485 nm by using a multi-mode microplate reader. Based on the fluorescence intensity of the group (control group) in which only amyloid-beta was treated and aggregated for 72 hours, the fluorescence intensity (%) of each group was calculated, and results are shown in FIG. 3B (mean±SEM, *: p<0.05, ***: p<0.001).

[3] = system: HT-22 mouse hippocampal neuronal cells and BV2 microglial cells; assay: Immunoblotting of cleaved caspase-3 and Bcl-2 in cells treated with amyloid-beta aggregates; format: cell-based; settings: amyloid-beta aggregates and 20 μM rhizolutin together, 24 hours
Description: To verify the inhibitory activity of rhizolutin on the neurotoxicity of the amyloid-beta aggregates, changes in apoptosis-related biomarkers after exposing neurons to the neurotoxicity of the amyloid-beta aggregates were observed. Here, cleaved caspase-3, which is an apoptosis-inducing factor, and B-cell lymphoma 2 (Bcl-2), which inhibits apoptosis, were used as the biomarkers.
HT-22 mouse hippocampal neuronal cells and BV2 microglial cells were inoculated into a plate in a predetermined number. To each of the HT-22 cell line and the BV2 cell line, an amyloid-beta solution prepared in the same manner as in Example 2-2 was added at a concentration of […], followed by incubation at 37° C. for 24 hours. Afterwards, 20 μM of rhizolutin was added to each microtube, followed by incubation with amyloid-beta in a final concentration of 20 μM at 37° C. for 24 hours. As a negative control group, a group without rhizolutin and the amyloid-beta protein was used.
Cleaved caspase-3 and Bcl-2, which are apoptosis-related biomarkers, were identified by immunoblotting, and images thereof are shown in FIG. 5A.

[4] = system: Tau protein; assay: Inhibition of formation of tau aggregates (thioflavin T fluorescence); format: biochemical; settings: 1 mM rhizolutin vs 20 mM EPPS
Description: Tau protein was prepared at a concentration of 1 mg/mL, and as described in Example 2-3, the prepared tau protein was added to a 1.5 mL microtube at a concentration of 0.5 mg/mL, and 1 mM of rhizolutin and 20 mM of EPPS were added thereto, followed by incubation at 37° C. for 120 hours.
(§1) Thioflavin T was added to the reaction, and the fluorescence intensity was measured at an excitation wavelength of 450 nm and an emission wavelength of 485 nm. As a negative control group, a vehicle without the tau protein and rhizolutin was used.
(§2) Based on the fluorescence intensity of the group in which only the tau protein was treated (positive control group), the fluorescence intensity (%) of each group was calculated, and results are shown in FIGS. 6A and 6B (mean±SEM, *: p<0.01, ***: p<0.001).

[5] = system: Tau protein; assay: Disaggregation of tau aggregates (thioflavin T fluorescence); format: biochemical; settings: 1 mM rhizolutin vs 20 mM EPPS
Description: Meanwhile, the tau protein was added to a 1.5 mL microtube at a concentration of 0.5 mg/mL, and incubated at 37° C. for 48 hours. Then, rhizolutin was added at a concentration of 1 mM, and incubated at 37° C. for 72 hours. To compare the efficacy, EPPS was added at a concentration of 20 mM, and incubated under the same conditions.
as §1, §2

[6] = system: APP/PS1 transgenic mice; assay: Amyloid-beta aggregates in brain tissue of APP/PS1 transgenic mice (thioflavine S / GFAP staining); format: in vivo, mouse; settings: 8 mg/kg/day intraperitoneal for 3 weeks
Description: First, APP/PS1 transgenic mice (7.5-month-old, male, Jackson Laboratory, 9 to 10 mice/group) to which the genes of AD patients were injected were prepared. In the APP/PS1 transgenic mice, human amyloid-beta is expressed at a high level, and Alzheimer-like plaques are formed in the brain.
The prepared mice were intraperitoneally administered daily with rhizolutin at a dose of 8 mg/body weight (kg)/day for 3 weeks. As a negative control group, the prepared mice were intraperitoneally administered with a vehicle only.
Afterwards, the mouse brain was removed, and changes in amyloid-beta aggregates (in the form of oligomer or fibril) as AD biomarkers in the brain tissue were measured.

T1 sequence (P05067 672-713): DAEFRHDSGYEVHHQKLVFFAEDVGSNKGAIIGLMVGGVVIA

CC[C@H]1C[C@@H]2/C(C)=C/[C@@H]3OC(=O)C[C@@H](O)C[C@H]3/C=C/C(C)=C\[C@H]2C(=O)O1 [rhizolutin]
formation of amyloid-beta aggregates (oligomer or fibril) [1]: significantly inhibited
disaggregation of amyloid-beta aggregates (oligomer or fibril) ([2]; 25 μM amyloid-beta pre-aggregated 72 hours, then 1 mM rhizolutin 72 hours, 37° C.): disaggregated the amyloid-beta aggregates
amyloid-beta disaggregation activity compared with EPPS ([2]; 1 mM rhizolutin vs 20 mM EPPS, same conditions): better than that of EPPS
expression of Bcl-2 [3]: the expression of Bcl-2 increased
expression of cleaved caspase-3 [3]: the expression of cleaved caspase-3 decreased
inhibiting formation of tau aggregates compared with EPPS [4]: better effects
disaggregating tau aggregates compared with EPPS [5]: better effects
GFAP, biomarker of neuroinflammation (astrocytosis around the plaques) ([6]; brain tissue): also decreased
number of amyloid-beta plaques in the hippocampus of the brain ([6]; thioflavine S, vs negative control group): decrease in the number of amyloid-beta plaques
